How the values were obtained:
MCF7 = assay: cells; details: Homo sapiens
Description: Inhibition of estrogen receptor positive MCF-7 breast cancer cell proliferation

MDA-MB-231 = assay: cells; details: Homo sapiens
Description: Inhibition of estrogen receptor negative MDA-MB-231 breast cancer cell proliferation

NCI/ADR-RES = assay: cells; details: Homo sapiens
Description: Inhibition of MCF-7/Adr breast cancer cell proliferation

MDA-MB-435 = assay: cells; details: Homo sapiens
Description: Inhibition of MDA-MB-435 breast cancer cell proliferation

Estrogen receptor = Estrogen receptor (Homo sapiens, UniProt Q92731+P03372); details: mcf-7
Description: Inhibition of [3H]E2 binding to estrogen receptor alpha in MCF-7 cell lysate

| Compound | IC50 (MCF7) [nM] | IC50 (MDA-MB-231) [nM] | IC50 (NCI/ADR-RES) [nM] | IC50 (MDA-MB-435) [nM] | IC50 (Estrogen receptor) [nM] |
| --- | --- | --- | --- | --- | --- |
| CC/C(=C(/c1ccc(O)cc1)c1ccc(OCN(C)C)cc1)c1ccccc1 | 300 | 30000 | 40000 | 20000 | 5 |
| CCC(c1ccccc1)C(c1ccc(O)cc1)c1ccc(OCCN(C)CCOCCO/N=C/c2ccc(O)c(C(N)=O)c2)cc1 (centres undefined) |  |  |  |  | 150 |
| CCC(c1ccccc1)C(c1ccc(O)cc1)c1ccc(OCCN(C)CCO/N=C/c2ccc(O)c(C(N)=O)c2)cc1 (centres undefined) |  |  |  |  | 300 |
| CC/C(=C(/c1ccc(O)cc1)c1ccc(OCN(C)C)cc1)c1ccccc1.COc1cccc2c1C(=O)c1c(O)c3c(c(O)c1C2=O)C[C@@](O)(C(=O)CO)C[C@@H]3O[C@H]1C[C@H](N)[C@H](O)[C@H](C)O1 | 70 | 100 | 2000 | 100 |  |
| CC/C(=C(/c1ccc(O)cc1)c1ccc(OCCN(C)CCO/N=C/c2ccc(O)c(C(=O)NCNC3CC(O[C@H]4C[C@](O)(C(=O)CO)Cc5c(O)c6c(c(O)c54)C(=O)c4c(OC)cccc4C6=O)OC(C)C3O)c2)cc1)c1ccccc1 (some centres undefined) | 80 | 40 | 250 | 60 | 300 |
| CC/C(=C(/c1ccc(O)cc1)c1ccc(OCCN(C)CCOCCO/N=C/c2ccc(O)c(C(=O)NCNC3CC(O[C@H]4C[C@](O)(C(=O)CO)Cc5c(O)c6c(c(O)c54)C(=O)c4c(OC)cccc4C6=O)OC(C)C3O)c2)cc1)c1ccccc1 (some centres undefined) | 20 | 30 | 70 | 40 | 300 |
| CCC(c1ccccc1)C(c1ccc(O)cc1)c1ccc(OCCN(C)CCOCCOCCO/N=C/c2ccc(O)c(C(N)=O)c2)cc1 (centres undefined) |  |  |  |  | 150 |
| CC/C(=C(/c1ccc(O)cc1)c1ccc(OCCN(C)CCOCCOCCO/N=C/c2ccc(O)c(C(=O)NCNC3CC(O[C@H]4C[C@](O)(C(=O)CO)Cc5c(O)c6c(c(O)c54)C(=O)c4c(OC)cccc4C6=O)OC(C)C3O)c2)cc1)c1ccccc1 (some centres undefined) | 30 | 30 | 60 | 40 | 200 |
| COc1cccc2c1C(=O)c1c(O)c3c(c(O)c1C2=O)C[C@@](O)(C(=O)CO)C[C@@H]3O[C@H]1C[C@H](N)[C@H](O)[C@H](C)O1 [DOXORUBICIN] |  | 300 | 10000 | 150 |  |
| CC/C(=C(\c1ccccc1)c1ccc(OCCN(C)C)cc1)c1ccccc1 [TAMOXIFEN] | 70 | 80 | 2000 | 50 |  |

Source: ChEMBL document CHEMBL1148484, “Design, synthesis, and biological evaluation of doxorubicin-formaldehyde conjugates targeted to breast cancer cells” (J Med Chem, 2004)
